Measurements reported in US20100048727A1, “PERFLUOROKETONE COMPOUNDS AND USES THEREOF” (priority 2007, published 2010).

Tests used:
human GIVA cPLA2 = target: T1, human GIVA cPLA2 (Homo sapiens, UniProt P47712); test: GIVA cPLA2 specific mixed micelle assay; assay type: biochemical; details: mean and standard error; for Average percent inhibition GIVA cPLA2: 0.091 mole fraction, n = 3
T1 sequence (P47712 1-749): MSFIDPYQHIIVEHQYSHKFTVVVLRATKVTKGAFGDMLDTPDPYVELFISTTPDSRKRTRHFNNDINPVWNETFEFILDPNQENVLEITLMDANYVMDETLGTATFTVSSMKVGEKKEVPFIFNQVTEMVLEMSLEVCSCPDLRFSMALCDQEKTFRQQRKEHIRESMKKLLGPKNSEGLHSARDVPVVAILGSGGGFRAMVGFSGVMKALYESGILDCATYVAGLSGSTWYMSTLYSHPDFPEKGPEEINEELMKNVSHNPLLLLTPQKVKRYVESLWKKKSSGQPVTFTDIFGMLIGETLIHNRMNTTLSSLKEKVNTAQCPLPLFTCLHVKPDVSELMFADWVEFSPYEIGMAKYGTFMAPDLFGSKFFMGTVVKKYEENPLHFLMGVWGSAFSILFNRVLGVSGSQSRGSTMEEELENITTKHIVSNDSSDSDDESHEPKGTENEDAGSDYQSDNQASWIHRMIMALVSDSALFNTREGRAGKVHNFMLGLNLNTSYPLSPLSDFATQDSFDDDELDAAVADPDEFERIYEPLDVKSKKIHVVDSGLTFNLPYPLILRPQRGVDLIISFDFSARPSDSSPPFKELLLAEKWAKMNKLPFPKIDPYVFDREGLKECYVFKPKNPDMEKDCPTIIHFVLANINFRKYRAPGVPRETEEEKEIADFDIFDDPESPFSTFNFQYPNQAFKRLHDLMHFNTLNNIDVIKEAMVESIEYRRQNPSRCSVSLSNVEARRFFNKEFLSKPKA
Description: (§1) Inhibition of phospholipase A2 by perfluoroketone compounds. […] (2002) J. Med. Chem. 45: 2891-2893; Kokotos, G. et al. (2004). J. Med. Chem. 47: 3615-3628). The standard GVIA iPLA2 activity assay utilizes DPPC/Triton™ X-100 mixed micelles at a ratio of 1:4 as previously described (Stephens D. et al. (2006). J. Med. Chem., 49: 2821-2828). GV sPLA2 activity was measured in an assay similar to the assays for GIVA cPLA2 and GVIA iPLA2.

GVIA iPLA2 = target: T2, GVIA iPLA2 (Homo sapiens, UniProt O60733); test: standard GVIA iPLA2 activity assay (DPPC/Triton X-100 mixed micelles); assay type: biochemical; details: mean and standard error; for Average percent inhibition GVIA iPLA2: 0.091 mole fraction, n = 3; for inhibition at 0.091 mole fraction: n = 3, read-out: Average percent inhibition GVIA iPLA2
T2 sequence (O60733 1-806): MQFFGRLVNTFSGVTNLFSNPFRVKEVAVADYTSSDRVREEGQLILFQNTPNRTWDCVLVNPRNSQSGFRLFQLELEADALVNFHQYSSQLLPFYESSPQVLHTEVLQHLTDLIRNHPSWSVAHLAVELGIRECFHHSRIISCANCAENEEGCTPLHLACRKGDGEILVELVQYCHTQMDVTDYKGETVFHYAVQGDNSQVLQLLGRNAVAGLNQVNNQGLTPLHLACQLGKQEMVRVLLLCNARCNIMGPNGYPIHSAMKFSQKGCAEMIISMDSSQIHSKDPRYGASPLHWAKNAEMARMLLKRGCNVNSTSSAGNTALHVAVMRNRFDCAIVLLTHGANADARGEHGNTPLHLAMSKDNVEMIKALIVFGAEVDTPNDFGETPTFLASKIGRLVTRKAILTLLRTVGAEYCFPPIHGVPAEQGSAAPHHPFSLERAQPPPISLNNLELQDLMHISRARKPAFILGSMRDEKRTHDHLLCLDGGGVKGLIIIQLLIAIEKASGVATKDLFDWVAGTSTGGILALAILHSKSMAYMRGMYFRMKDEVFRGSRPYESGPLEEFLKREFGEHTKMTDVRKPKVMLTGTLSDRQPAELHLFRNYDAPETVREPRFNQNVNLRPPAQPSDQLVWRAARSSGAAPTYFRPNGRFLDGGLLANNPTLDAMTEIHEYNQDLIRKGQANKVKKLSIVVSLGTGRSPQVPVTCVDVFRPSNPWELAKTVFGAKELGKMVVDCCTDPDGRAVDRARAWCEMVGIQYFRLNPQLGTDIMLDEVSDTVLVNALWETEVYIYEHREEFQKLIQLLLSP
Description: as §1

GV sPLA2 = target: T3, GV sPLA2 (Homo sapiens, UniProt P39877); test: GV sPLA2 activity assay (release of [14C]-palmitic acid from mixed micelles); assay type: biochemical; details: mean and standard error; for Average percent inhibition GV sPLA2: 0.091 mole fraction, n = 3
T3 sequence (P39877 21-138): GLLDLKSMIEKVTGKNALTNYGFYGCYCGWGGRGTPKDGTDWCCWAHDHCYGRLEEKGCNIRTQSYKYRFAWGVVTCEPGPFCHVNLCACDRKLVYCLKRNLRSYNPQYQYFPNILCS
Description: as §1

EAE-induced SJL/J mice = test: Clinical course of EAE in SJL/J mice treated with fluoroketone compounds; assay type: in vivo

SMILES	Average percent inhibition GIVA cPLA2 (human GIVA cPLA2) [%]	Average percent inhibition GVIA iPLA2 (GVIA iPLA2) [%]	Average percent inhibition GV sPLA2 (GV sPLA2) [%]	inhibition at 0.091 mole fraction (GVIA iPLA2) [%]	inhibition at 0.091 mole fraction (human GIVA cPLA2; n = 3, read-out: Average percent inhibition GIVA cPLA2) [%]	inhibition at 0.091 mole fraction (GV sPLA2; n = 3, read-out: Average percent inhibition GV sPLA2) [%]	melting point [°C]	severity and progression of the disease (EAE) (EAE-induced SJL/J mice; delayed treatment from day 11 after immunization, 2 weeks, i.p., vs vehicle)	maximum clinical disability score (EAE-induced SJL/J mice; treatment before onset of symptoms, daily for 3 weeks from day 6, course until day 40, 5-point scale)
CCCCCCCCCCCCCCC(F)C(=O)C(F)(F)F (stereo not drawn) [FKGK8, 1,1,1,3-Tetrafluoro-2-heptadecanone]	94 ± 2	93 ± 4	86 ± 10						
CCCCCCCCCCOc1ccc(CCCCC(=O)C(F)(F)F)cc1 [FKGK4, 1,1,1-Trifluoro-6-(4-decyloxy-phenyl)-2-hexanone]	95 ± 2		84 ± 7	94 ± 8					
CCCCCCCCCCOc1ccc(CCC(=O)C(F)(F)F)cc1 [FKGK3, 1,1,1-Trifluoro-4-(4-decyloxy-phenyl)-2-butanone]	96 ± 2	94 ± 8	80 ± 6						
CCCCCCOc1ccc(CCCCC(=O)C(F)(F)F)cc1 [FKGK2, 1,1,1-Trifluoro-6-(4hexyloxy-phenyl)-2-hexanone]	92 ± 3	91 ± 4	86 ± 2					did not show any significant improvement	around 0.5 grade

Further lines, with some results ahead:

Average percent inhibition GIVA cPLA2 (human GIVA cPLA2) [%]	Average percent inhibition GVIA iPLA2 (GVIA iPLA2) [%]	Average percent inhibition GV sPLA2 (GV sPLA2) [%]	inhibition at 0.091 mole fraction (GVIA iPLA2) [%]	inhibition at 0.091 mole fraction (human GIVA cPLA2; n = 3, read-out: Average percent inhibition GIVA cPLA2) [%]	inhibition at 0.091 mole fraction (GV sPLA2; n = 3, read-out: Average percent inhibition GV sPLA2) [%]	melting point [°C]	SMILES	severity and progression of the disease (EAE) (EAE-induced SJL/J mice; delayed treatment from day 11 after immunization, 2 weeks, i.p., vs vehicle)	maximum clinical disability score (EAE-induced SJL/J mice; treatment before onset of symptoms, daily for 3 weeks from day 6, course until day 40, 5-point scale)
73 ± 4	95 ± 5	86 ± 4					CCCCCCOc1ccc(CCC(=O)C(F)(F)C(F)(F)F)cc1 [FKGK14, 1,1,1,2,2-Pentafluoro-5-(4-hexyloxy-phenyl)-3-pentanone]		
56 ± 4	98 ± 5	46 ± 8					O=C(CCCCCc1ccccc1)C(F)(F)C(F)(F)F [FKGK12, 1,1,1,2,2-Pentafluoro-8-phenyl-3-octanone]		
			49 ± 12	27 ± 3	59 ± 12		O=C(C(F)(F)F)C(F)(F)CCCc1ccccc1 [FKGK7, 1,1,1,3,3-Pentafluoro-6-phenyl-hexan-2-one]		
65 ± 12	98 ± 4	75 ± 10					O=C(CCCCCCc1ccccc1)C(F)(F)C(F)(F)F [FKGK13, 1,1,1,2,2-Pentafluoro-9-phenyl-3-nonanone]		
91 ± 2	85 ± 4	82 ± 8					CCCCCCOc1ccc(CCC(=O)C(F)(F)F)cc1 [FKGK1, 1,1,1-Trifluoro-4-(4-hexyloxy-phenyl)-2-butanone]		
88 ± 1	71 ± 14	49 ± 12				71 to 72	O=C(CCc1ccc(OCc2ccccc2)cc1)C(F)(F)F [FKGK5, 1,1,1-Trifluoro-4-(4-benzyloxy-phenyl)-2-butanone]		
